Test results published in the NIST ThermoML archive (doi:10.1021/je050416y).

Assay: xn = mol fraction of the nth substance listed
Conditions: 101 kPa, Liquid; for mass density: Vibrating tube method

CC(C)CCO [3-methylbutan-1-ol] + CCO
Conditions | kinematic viscosity [m2/s] | mass density [kg/m3]
293.15 K, x1 = 0.0268 | – | 790.5
293.15 K, x1 = 0.0549 | – | 791.3
293.15 K, x1 = 0.0845 | – | 792.1
293.15 K, x1 = 0.0915 | 1.55e-06 | –
293.15 K, x1 = 0.1156 | – | 792.9
293.15 K, x1 = 0.1484 | – | 793.8
293.15 K, x1 = 0.1753 | 1.61e-06 | –
293.15 K, x1 = 0.183 | – | 794.7
293.15 K, x1 = 0.2524 | 1.68e-06 | –
293.15 K, x1 = 0.2584 | – | 796.6
293.15 K, x1 = 0.3235 | 1.75e-06 | –
293.15 K, x1 = 0.3433 | – | 798.5
293.15 K, x1 = 0.3894 | 1.83e-06 | –
293.15 K, x1 = 0.4395 | – | 800.4
293.15 K, x1 = 0.4505 | 1.93e-06 | –
293.15 K, x1 = 0.5495 | – | 802.4
293.15 K, x1 = 0.5605 | 2.19e-06 | –
293.15 K, x1 = 0.6567 | 2.51e-06 | –
293.15 K, x1 = 0.6765 | – | 804.3
293.15 K, x1 = 0.7416 | 2.89e-06 | –
293.15 K, x1 = 0.817 | 3.31e-06 | –
293.15 K, x1 = 0.8247 | – | 806.3
293.15 K, x1 = 0.8844 | 3.8e-06 | –
293.15 K, x1 = 0.9451 | 4.35e-06 | –
293.15 K, x1 = 1 | 5e-06 | 808.3
298.15 K, x1 = 0.0268 | – | 786.2
298.15 K, x1 = 0.0549 | – | 787
298.15 K, x1 = 0.0845 | – | 787.9
298.15 K, x1 = 0.0915 | 1.42e-06 | –
298.15 K, x1 = 0.1156 | – | 788.8
298.15 K, x1 = 0.1484 | – | 789.7
298.15 K, x1 = 0.1753 | 1.48e-06 | –
298.15 K, x1 = 0.183 | – | 790.6
298.15 K, x1 = 0.2524 | 1.54e-06 | –
298.15 K, x1 = 0.2584 | – | 792.5
298.15 K, x1 = 0.3235 | 1.61e-06 | –
298.15 K, x1 = 0.3433 | – | 794.5
298.15 K, x1 = 0.3894 | 1.69e-06 | –
298.15 K, x1 = 0.4395 | – | 796.5
298.15 K, x1 = 0.4505 | 1.78e-06 | –
298.15 K, x1 = 0.5495 | – | 798.5
298.15 K, x1 = 0.5605 | 2.01e-06 | –
298.15 K, x1 = 0.6567 | 2.28e-06 | –
298.15 K, x1 = 0.6765 | – | 800.5
298.15 K, x1 = 0.7416 | 2.6e-06 | –
298.15 K, x1 = 0.817 | 2.96e-06 | –
298.15 K, x1 = 0.8247 | – | 802.6
298.15 K, x1 = 0.8844 | 3.37e-06 | –
298.15 K, x1 = 0.9451 | 3.84e-06 | –
298.15 K, x1 = 1 | 4.35e-06 | 804.6
303.15 K, x1 = 0.0268 | – | 781.8
303.15 K, x1 = 0.0549 | – | 782.7
303.15 K, x1 = 0.0845 | – | 783.7
303.15 K, x1 = 0.0915 | 1.27e-06 | –
303.15 K, x1 = 0.1156 | – | 784.6
303.15 K, x1 = 0.1484 | – | 785.5
303.15 K, x1 = 0.1753 | 1.32e-06 | –
303.15 K, x1 = 0.183 | – | 786.5
303.15 K, x1 = 0.2524 | 1.38e-06 | –
303.15 K, x1 = 0.2584 | – | 788.5
303.15 K, x1 = 0.3235 | 1.45e-06 | –
303.15 K, x1 = 0.3433 | – | 790.5
303.15 K, x1 = 0.3894 | 1.52e-06 | –
303.15 K, x1 = 0.4395 | – | 792.5
303.15 K, x1 = 0.4505 | 1.61e-06 | –
303.15 K, x1 = 0.5495 | – | 794.6
303.15 K, x1 = 0.5605 | 1.81e-06 | –
303.15 K, x1 = 0.6567 | 2.05e-06 | –
303.15 K, x1 = 0.6765 | – | 796.7
303.15 K, x1 = 0.7416 | 2.33e-06 | –
303.15 K, x1 = 0.817 | 2.64e-06 | –
303.15 K, x1 = 0.8247 | – | 798.7
303.15 K, x1 = 0.8844 | 2.99e-06 | –
303.15 K, x1 = 0.9451 | 3.38e-06 | –
303.15 K, x1 = 1 | 3.81e-06 | 800.8
308.15 K, x1 = 0.0268 | – | 777.5
308.15 K, x1 = 0.0549 | – | 778.4
308.15 K, x1 = 0.0845 | – | 779.4
308.15 K, x1 = 0.0915 | 1.17e-06 | –
308.15 K, x1 = 0.1156 | – | 780.4
308.15 K, x1 = 0.1484 | – | 781.4
308.15 K, x1 = 0.1753 | 1.22e-06 | –
308.15 K, x1 = 0.183 | – | 782.4
308.15 K, x1 = 0.2524 | 1.27e-06 | –
308.15 K, x1 = 0.2584 | – | 784.4
308.15 K, x1 = 0.3235 | 1.33e-06 | –
308.15 K, x1 = 0.3433 | – | 786.5
308.15 K, x1 = 0.3894 | 1.4e-06 | –
308.15 K, x1 = 0.4395 | – | 788.6
308.15 K, x1 = 0.4505 | 1.47e-06 | –
308.15 K, x1 = 0.5495 | – | 790.7
308.15 K, x1 = 0.5605 | 1.65e-06 | –
308.15 K, x1 = 0.6567 | 1.86e-06 | –
308.15 K, x1 = 0.6765 | – | 792.9
308.15 K, x1 = 0.7416 | 2.1e-06 | –
308.15 K, x1 = 0.817 | 2.37e-06 | –
308.15 K, x1 = 0.8247 | – | 795
308.15 K, x1 = 0.8844 | 2.66e-06 | –
308.15 K, x1 = 0.9451 | 2.98e-06 | –
308.15 K, x1 = 1 | 3.33e-06 | 797.1
313.15 K, x1 = 0.0268 | – | 773.2
313.15 K, x1 = 0.0549 | – | 774.2
313.15 K, x1 = 0.0845 | – | 775.2
313.15 K, x1 = 0.0915 | 1.07e-06 | –
313.15 K, x1 = 0.1156 | – | 776.2
313.15 K, x1 = 0.1484 | – | 777.2
313.15 K, x1 = 0.1753 | 1.12e-06 | –
313.15 K, x1 = 0.183 | – | 778.2
313.15 K, x1 = 0.2524 | 1.17e-06 | –
313.15 K, x1 = 0.2584 | – | 780.3
313.15 K, x1 = 0.3235 | 1.22e-06 | –
313.15 K, x1 = 0.3433 | – | 782.4
313.15 K, x1 = 0.3894 | 1.28e-06 | –
313.15 K, x1 = 0.4395 | – | 784.6
313.15 K, x1 = 0.4505 | 1.35e-06 | –
313.15 K, x1 = 0.5495 | – | 786.7
313.15 K, x1 = 0.5605 | 1.51e-06 | –
313.15 K, x1 = 0.6567 | 1.69e-06 | –
313.15 K, x1 = 0.6765 | – | 788.9
313.15 K, x1 = 0.7416 | 1.9e-06 | –
313.15 K, x1 = 0.817 | 2.13e-06 | –
313.15 K, x1 = 0.8247 | – | 791
313.15 K, x1 = 0.8844 | 2.38e-06 | –
313.15 K, x1 = 0.9451 | 2.66e-06 | –
313.15 K, x1 = 1 | 2.94e-06 | 793.2
318.15 K, x1 = 0.0268 | – | 769
318.15 K, x1 = 0.0549 | – | 770
318.15 K, x1 = 0.0845 | – | 771
318.15 K, x1 = 0.0915 | 9.8e-07 | –
318.15 K, x1 = 0.1156 | – | 772
318.15 K, x1 = 0.1484 | – | 773.1
318.15 K, x1 = 0.1753 | 1.03e-06 | –
318.15 K, x1 = 0.183 | – | 774.1
318.15 K, x1 = 0.2524 | 1.07e-06 | –
318.15 K, x1 = 0.2584 | – | 776.3
318.15 K, x1 = 0.3235 | 1.12e-06 | –
318.15 K, x1 = 0.3433 | – | 778.4
318.15 K, x1 = 0.3894 | 1.17e-06 | –
318.15 K, x1 = 0.4395 | – | 780.6
318.15 K, x1 = 0.4505 | 1.23e-06 | –
318.15 K, x1 = 0.5495 | – | 782.8
318.15 K, x1 = 0.5605 | 1.37e-06 | –
318.15 K, x1 = 0.6567 | 1.54e-06 | –
318.15 K, x1 = 0.6765 | – | 785.1
318.15 K, x1 = 0.7416 | 1.72e-06 | –
318.15 K, x1 = 0.817 | 1.92e-06 | –
318.15 K, x1 = 0.8247 | – | 787.3
318.15 K, x1 = 0.8844 | 2.13e-06 | –
318.15 K, x1 = 0.9451 | 2.36e-06 | –
318.15 K, x1 = 1 | 2.59e-06 | 789.5
323.15 K, x1 = 0.0268 | – | 764.6
323.15 K, x1 = 0.0549 | – | 765.7
323.15 K, x1 = 0.0845 | – | 766.7
323.15 K, x1 = 0.0915 | 8.72e-07 | –
323.15 K, x1 = 0.1156 | – | 767.8
323.15 K, x1 = 0.1484 | – | 768.9
323.15 K, x1 = 0.1753 | 9.13e-07 | –
323.15 K, x1 = 0.183 | – | 769.9
323.15 K, x1 = 0.2524 | 9.53e-07 | –
323.15 K, x1 = 0.2584 | – | 772.1
323.15 K, x1 = 0.3235 | 9.96e-07 | –
323.15 K, x1 = 0.3433 | – | 774.3
323.15 K, x1 = 0.3894 | 1.05e-06 | –
323.15 K, x1 = 0.4395 | – | 776.6
323.15 K, x1 = 0.4505 | 1.1e-06 | –
323.15 K, x1 = 0.5495 | – | 778.9
323.15 K, x1 = 0.5605 | 1.23e-06 | –
323.15 K, x1 = 0.6567 | 1.39e-06 | –
323.15 K, x1 = 0.6765 | – | 781.2
323.15 K, x1 = 0.7416 | 1.55e-06 | –
323.15 K, x1 = 0.817 | 1.72e-06 | –
323.15 K, x1 = 0.8247 | – | 783.4
323.15 K, x1 = 0.8844 | 1.9e-06 | –
323.15 K, x1 = 0.9451 | 2.09e-06 | –
323.15 K, x1 = 1 | 2.29e-06 | 785.7
